{"source": "ChEMBL document CHEMBL5042533", "about": "“Structural Optimization and Structure-Activity Relationship Studies of 6,6-Dimethyl-4-(phenylamino)-6H-pyrimido[5,4-b][1,4]oxazin-7(8H)-one Derivatives as A New Class of Potent Inhibitors of Pan-Trk and Their Drug-Resistant Mutants” (J Med Chem, 2022)", "key": {"[1]": {"tested_on": "BaF3", "assay": "Cytotoxicity against mouse BaF3 cells expressing LMNA fused TrkA F589L mutant assessed as inhibition of cell growth incubated for 3 days by CCK-8 assay", "format": "functional, cell-based", "settings": "BaF3, 72 h"}, "[2]": {"tested_on": "BaF3", "assay": "Antitumour activity against mouse BaF3 cells expressing TEL fused TrkA allografted in NOD-SCID mouse assessed as reduction in tumor progression at 40 mg/kg/day, po qd measured every 2 or 3 days for 10 days", "format": "functional, organism-based", "settings": "time 10.0 day"}, "[3]": {"tested_on": "BaF3", "assay": "Antitumour activity against larotrectinib-resistant mouse BaF3 cells expressing TEL fused TrkC G623R mutant allografted in NOD-SCID mouse assessed as reduction in tumor growth at 40 mg/kg/day, po qd measured every 2 or 3 days for 10 days", "format": "functional, organism-based", "settings": "time 10.0 day"}, "[4]": {"assay": "Toxicity in NOD-SCID mouse allografted with mouse BaF3 cells expressing TEL fused TrkA assessed as body weight loss at 40 mg/kg, po qd measured every 2 or 3 days for 10 days", "format": "organism-based", "settings": "in vivo, 240 h, time 10 day"}, "[5]": {"assay": "Toxicity in NOD-SCID mouse allografted with larotrectinib-resistant mouse BaF3 cells expressing TEL fused TrkC G623R mutant assessed as body weight loss at 40 mg/kg, po qd measured every 2 or 3 days for 10 days", "format": "organism-based", "settings": "in vivo, 240 h, time 10 day"}, "[6]": {"assay": "Toxicity in NOD-SCID mouse assessed as histological changes in heart at 5 to 20 mg/kg, iv measured after 10 days by H and E staining based microscopic analysis", "format": "organism-based", "settings": "in vivo, 240 h, dose 5-20 mg/kg, time 10 day"}, "[7]": {"assay": "Toxicity in NOD-SCID mouse assessed as histological changes in liver at 5 to 20 mg/kg, iv measured after 10 days by H and E staining based microscopic analysis", "format": "organism-based", "settings": "in vivo, 240 h, dose 5-20 mg/kg, time 10 day"}, "[8]": {"assay": "Toxicity in NOD-SCID mouse assessed as histological changes in spleen at 5 to 20 mg/kg, iv measured after 10 days by H and E staining based microscopic analysis", "format": "organism-based", "settings": "in vivo, 240 h, dose 5-20 mg/kg, time 10 day"}, "[9]": {"assay": "Toxicity in NOD-SCID mouse assessed as histological changes in lung at 5 to 20 mg/kg, iv measured after 10 days by H and E staining based microscopic analysis", "format": "organism-based", "settings": "in vivo, 240 h, dose 5-20 mg/kg, time 10 day"}, "[10]": {"assay": "Toxicity in NOD-SCID mouse assessed as histological changes in kidney at 5 to 20 mg/kg, iv measured after 10 days by H and E staining based microscopic analysis", "format": "organism-based", "settings": "in vivo, 240 h, dose 5-20 mg/kg, time 10 day"}, "[11]": {"tested_on": "BaF3", "assay": "In vivo inhibition of Trk signalling in NOD-SCID mouse allografted with mouse BaF3 cells expressing TEL fused TrkC G623R mutant assessed as reduction in p-Trk level at 5 to 20 mg/kg, iv qd measured after 10 days by IHC staining based analysis", "format": "functional, organism-based", "settings": "dose 5-20 mg/kg, time 10.0 day"}, "[12]": {"tested_on": "BaF3", "assay": "In vivo inhibition of Trk signalling in NOD-SCID mouse allografted with mouse BaF3 cells expressing TEL fused TrkC G623R mutant assessed as reduction in p-Erk level at 5 to 20 mg/kg, iv qd measured after 10 days by IHC staining based analysis", "format": "functional, organism-based", "settings": "dose 5-20 mg/kg, time 10.0 day"}, "[13]": {"tested_on": "BaF3", "assay": "In vivo inhibition of Trk signalling in NOD-SCID mouse allografted with mouse BaF3 cells expressing TEL fused TrkC G623R mutant assessed as reduction in p-Akt level at 5 to 20 mg/kg, iv qd measured after 10 days by IHC staining based analysis", "format": "functional, organism-based", "settings": "dose 5-20 mg/kg, time 10.0 day"}, "[14]": {"tested_on": "BaF3", "assay": "cells", "settings": "Mus musculus", "description": "Cytotoxicity against mouse BaF3 cells harboring TEL fused TrkC G613R mutant assessed as inhibition of cell growth by MTT assay"}, "[15]": {"tested_on": "BaF3", "assay": "cells", "settings": "Mus musculus, BaF3, 72 h", "description": "Cytotoxicity against mouse BaF3 cells expressing TEL fused TrkA assessed as inhibition of cell growth incubated for 3 days by CCK-8 assay"}, "[16]": {"tested_on": "BaF3", "assay": "cells", "settings": "Mus musculus, BaF3, 72 h", "remark": "listed apart in the source", "description": "Cytotoxicity against mouse BaF3 cells expressing CD74 fused TrkA assessed as inhibition of cell growth incubated for 3 days by CCK-8 assay"}, "[17]": {"tested_on": "BaF3", "assay": "cells", "settings": "Mus musculus, BaF3, 72 h", "remark": "listed apart in the source", "description": "Cytotoxicity against mouse BaF3 cells expressing TEL fused TrkC assessed as inhibition of cell growth incubated for 3 days by CCK-8 assay"}, "[18]": {"tested_on": "BaF3", "assay": "cells", "settings": "Mus musculus, BaF3, 72 h", "remark": "listed apart in the source"}, "[19]": {"tested_on": "BaF3", "assay": "cells", "settings": "Mus musculus, BaF3, 72 h", "remark": "listed apart in the source"}, "[20]": {"tested_on": "BaF3", "assay": "cells", "settings": "Mus musculus, BaF3, 72 h", "remark": "listed apart in the source", "description": "Cytotoxicity against mouse BaF3 cells expressing LMNA fused TrkA G667S mutant assessed as inhibition of cell growth incubated for 3 days by CCK-8 assay"}, "[21]": {"tested_on": "BaF3", "assay": "cells", "settings": "Mus musculus, BaF3, 72 h", "remark": "listed apart in the source", "description": "Cytotoxicity against mouse BaF3 cells expressing TEL fused TrkC G623R assessed as inhibition of cell growth incubated for 3 days by CCK-8 assay"}, "[22]": {"tested_on": "BaF3", "assay": "cells", "settings": "Mus musculus, BaF3, 72 h", "remark": "listed apart in the source", "description": "Cytotoxicity against mouse BaF3 cells expressing TEL fused TrkC G696C assessed as inhibition of cell growth incubated for 3 days by CCK-8 assay"}, "[23]": {"assay": "cells", "settings": "Homo sapiens, KM12-Luc, 72 h", "description": "Cytotoxicity against human KM12-Luc cells expressing TPM3 fused TrkA assessed as inhibition of cell growth incubated for 3 days by CCK-8 assay"}, "[24]": {"assay": "in vitro", "settings": "mouse, BaF3 cells", "description": "Cytotoxicity against mouse BaF3 assessed as inhibition of cell growth incubated for 3 days by CCK-8 assay"}}, "note": "Calls of active or inactive are those of the source. No cut-off for these calls is given here.", "data": [{"smiles": "C[C@@H]1CCc2ncc(F)cc2[C@H]2CCCN2c2ccn3ncc(c3n2)C(=O)N1", "note": "[SELITRECTINIB]", "values": [{"measurement": "IC50", "setting": "[1]", "result": 17, "unit": "nM"}, {"measurement": "Activity", "setting": "[2]", "result": "Active"}, {"measurement": "Activity", "setting": "[3]", "result": "Active"}, {"measurement": "Activity", "setting": "[4]", "result": "Non-Toxic"}, {"measurement": "Activity", "setting": "[5]", "result": "Non-Toxic"}, {"measurement": "Activity", "setting": "[6]", "result": "Non-Toxic"}, {"measurement": "Activity", "setting": "[7]", "result": "Non-Toxic"}, {"measurement": "Activity", "setting": "[8]", "result": "Non-Toxic"}, {"measurement": "Activity", "setting": "[9]", "result": "Non-Toxic"}, {"measurement": "Activity", "setting": "[10]", "result": "Non-Toxic"}, {"measurement": "inhibition", "setting": "[11]", "result": "Active"}, {"measurement": "inhibition", "setting": "[12]", "result": "Active"}, {"measurement": "inhibition", "setting": "[13]", "result": "Active"}, {"measurement": "IC50", "setting": "[14]", "result": 18, "unit": "nM"}, {"measurement": "IC50", "setting": "[15]", "result": 9, "unit": "nM"}, {"measurement": "IC50", "setting": "[16]", "result": 1, "unit": "nM"}, {"measurement": "IC50", "setting": "[17]", "result": 4, "unit": "nM"}, {"measurement": "IC50", "setting": "[18]", "result": 15, "unit": "nM"}, {"measurement": "IC50", "setting": "[19]", "result": 109, "unit": "nM"}, {"measurement": "IC50", "setting": "[20]", "result": 30, "unit": "nM"}, {"measurement": "IC50", "setting": "[21]", "result": 18, "unit": "nM"}, {"measurement": "IC50", "setting": "[22]", "result": 50, "unit": "nM"}, {"measurement": "IC50", "setting": "[23]", "result": 5, "unit": "nM"}, {"measurement": "IC50 at 3 days", "setting": "[24]", "result": "> 10000", "unit": "nM"}]}]}
